Measured values taken from PubChem BioAssay (NCI).
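Grown in 96-well plates, cells were treated for 48 hours with each compound at five concentrations. Insufficient inhibition: endpoint recorded as highest concentration tested. Here, GI50 denotes the concentration required for 50% inhibition of growth. TGI: concentration producing complete growth inhibition.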

Tests used:
Experiment in all cases: NCI-60 cell line screen, 48 h
[1] = test system: K-562 leukemia
[2] = test system: OVCAR-4 ovarian
[3] = test system: UO-31 renal
[4] = test system: 786-0 renal
[5] = test system: OVCAR-3 ovarian
[6] = test system: M14 melanoma
[7] = test system: NCI-H460 lung
[8] = test system: COLO 205 colon
[9] = test system: SF-539 CNS
[10] = test system: NCI-H23 lung
[11] = test system: DU-145 prostate
[12] = test system: SN12C renal
[13] = test system: HCT-116 colon
[14] = test system: U251 CNS
[15] = test system: RPMI-8226 leukemia
[16] = test system: SF-268 CNS
[17] = test system: PC-3 prostate
[18] = test system: NCI-H522 lung
[19] = test system: NCI/ADR-RES ovarian
[20] = test system: MCF7 breast
[21] = test system: MDA-MB-231 breast
[22] = test system: SR leukemia
[23] = test system: MOLT-4 leukemia
[24] = test system: HCC-2998 colon
[25] = test system: HOP-92 NSCLC
[26] = test system: HOP-62 NSCLC
[27] = test system: TK-10 renal
[28] = test system: MALME-3M melanoma
[29] = test system: ACHN renal
[30] = test system: UACC-62 melanoma
[31] = test system: A549 NSCLC
[32] = test system: MDA-MB-468 breast
[33] = test system: SF-295 CNS
[34] = test system: SNB-19 CNS
[35] = test system: SK-MEL-28 melanoma
[36] = test system: OVCAR-8 ovarian
[37] = test system: HCT-15 colon
[38] = test system: SK-MEL-5 melanoma
[39] = test system: LOX IMVI melanoma
[40] = test system: A498 renal
[41] = test system: MDA-MB-435
[42] = test system: KM12 colon
[43] = test system: EKVX NSCLC
[44] = test system: HL-60(TB) leukemia
[45] = test system: RXF 393 renal
[46] = test system: T-47D breast
[47] = test system: HS 578T breast
[48] = test system: IGROV1 ovarian
[49] = test system: UACC-257 melanoma
[50] = test system: SW-620 colon
[51] = test system: CAKI-1 renal
[52] = test system: SNB-75 CNS
[53] = test system: CCRF-CEM leukemia
[54] = test system: OVCAR-5 ovarian
[55] = test system: NCI-H226 lung
[56] = test system: HT29 colon
[57] = test system: SK-OV-3 ovarian
[58] = test system: BT-549 breast
[59] = test system: SK-MEL-2 melanoma

CN(CCO)c1oc(-c2ccccc2)nc1[P+](c1ccccc1)(c1ccccc1)c1ccccc1
GI50 [1]: 1.01 µM
TGI [1]: 13.6 µM
GI50 [2]: 2.79 µM
TGI [2]: 27.1 µM
GI50 [3]: 19 µM
TGI [3]: 54.3 µM
GI50 [4]: 5.31 µM
TGI [4]: 20.8 µM
GI50 [5]: 1.08 µM
TGI [5]: 12.6 µM
GI50 [6]: 2.81 µM
TGI [6]: 12.4 µM
GI50 [7]: 2.74 µM
TGI [7]: 12.4 µM
GI50 [8]: 1.46 µM
TGI [8]: 3.28 µM
GI50 [9]: 2.74 µM
TGI [9]: 12.1 µM
GI50 [10]: 2.27 µM
TGI [10]: 7.25 µM
GI50 [11]: 3.26 µM
TGI [11]: 13.7 µM
GI50 [12]: 2.4 µM
TGI [12]: 6.88 µM
GI50 [13]: 2.84 µM
TGI [13]: 12 µM
GI50 [14]: 2.31 µM
TGI [14]: 13.6 µM
GI50 [15]: 0.393 µM
TGI [15]: 4.03 µM
GI50 [16]: 3.27 µM
TGI [16]: 14 µM
GI50 [17]: 1.75 µM
TGI [17]: 10.4 µM
GI50 [18]: 0.854 µM
TGI [18]: 4.05 µM
GI50 [19]: > 100 µM
TGI [19]: > 100 µM
GI50 [20]: 1.21 µM
TGI [20]: 6.84 µM
GI50 [21]: 1.36 µM
TGI [21]: 4.18 µM
GI50 [22]: 1.64 µM
TGI [22]: 12.4 µM
GI50 [23]: 2.77 µM
TGI [23]: 11.8 µM
GI50 [24]: 1.82 µM
TGI [24]: 12.4 µM
GI50 [25]: 1.22 µM
TGI [25]: 4.9 µM
GI50 [26]: 3.49 µM
TGI [26]: 13 µM
GI50 [27]: 3.5 µM
TGI [27]: 15.2 µM
GI50 [28]: 1.6 µM
TGI [28]: 9.14 µM
GI50 [29]: 8.36 µM
TGI [29]: 41.6 µM
GI50 [30]: 1.23 µM
TGI [30]: 5.97 µM
GI50 [31]: 5.22 µM
TGI [31]: 34.6 µM
GI50 [32]: 0.285 µM
TGI [32]: 1.37 µM
GI50 [33]: 2.62 µM
TGI [33]: 9.92 µM
GI50 [34]: 2.01 µM
TGI [34]: 7.95 µM
GI50 [35]: 1.54 µM
TGI [35]: 12.7 µM
GI50 [36]: 3.33 µM
TGI [36]: 16.3 µM
GI50 [37]: 13.5 µM
TGI [37]: 31.2 µM
GI50 [38]: 1.15 µM
TGI [38]: 2.52 µM
GI50 [39]: 2.21 µM
TGI [39]: 10.1 µM
GI50 [40]: 6.82 µM
TGI [40]: 22.8 µM
GI50 [41]: 1.6 µM
TGI [41]: 9.66 µM
GI50 [42]: 2.12 µM
TGI [42]: 10.2 µM
GI50 [43]: 2.35 µM
TGI [43]: 13.4 µM
GI50 [44]: 0.535 µM
TGI [44]: 2.73 µM
GI50 [45]: 1.94 µM
TGI [45]: 9.64 µM
GI50 [46]: 0.517 µM
TGI [46]: 11.2 µM
GI50 [47]: 2.39 µM
TGI [47]: 9.08 µM
GI50 [48]: 0.802 µM
TGI [48]: 7.45 µM
GI50 [49]: 1.95 µM
TGI [49]: 9.63 µM
GI50 [50]: 2.9 µM
TGI [50]: 23.1 µM
GI50 [51]: 4 µM
TGI [51]: 24.9 µM
GI50 [52]: 1.28 µM
TGI [52]: 5.89 µM
GI50 [53]: 2.39 µM
TGI [53]: 12.2 µM
GI50 [54]: 2.27 µM
TGI [54]: 8.21 µM
GI50 [55]: 2.73 µM
TGI [55]: 10.9 µM
GI50 [56]: 2.82 µM
TGI [56]: 21.2 µM
GI50 [57]: 2.98 µM
TGI [57]: 8.21 µM
GI50 [58]: 1.78 µM
TGI [58]: 7.08 µM
GI50 [59]: 1.96 µM
TGI [59]: 5.43 µM
